The source made the active and inactive calls. Rule as the data show it, for most assays here: actives have a measured EC50 and inactives only a lower limit. Bounds are passed on as bounds.

Assay [1] concerns the target T1, Corticotropin-releasing factor receptor 2/Corticotropin-releasing factor-binding protein (Homo sapiens, UniProt P24387+Q13324).
T1 sequence (Q13324 whole entry): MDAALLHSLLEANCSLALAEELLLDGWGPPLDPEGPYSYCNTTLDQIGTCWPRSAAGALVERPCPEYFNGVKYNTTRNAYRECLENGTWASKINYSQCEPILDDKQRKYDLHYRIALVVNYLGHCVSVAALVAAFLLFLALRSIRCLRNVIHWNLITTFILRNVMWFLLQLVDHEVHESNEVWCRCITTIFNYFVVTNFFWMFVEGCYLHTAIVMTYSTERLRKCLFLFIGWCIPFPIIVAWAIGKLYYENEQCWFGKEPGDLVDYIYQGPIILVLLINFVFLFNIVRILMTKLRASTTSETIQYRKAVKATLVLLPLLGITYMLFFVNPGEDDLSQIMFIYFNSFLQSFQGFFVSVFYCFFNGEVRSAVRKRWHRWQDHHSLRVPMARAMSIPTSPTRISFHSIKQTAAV
T1 sequence (P24387 whole entry): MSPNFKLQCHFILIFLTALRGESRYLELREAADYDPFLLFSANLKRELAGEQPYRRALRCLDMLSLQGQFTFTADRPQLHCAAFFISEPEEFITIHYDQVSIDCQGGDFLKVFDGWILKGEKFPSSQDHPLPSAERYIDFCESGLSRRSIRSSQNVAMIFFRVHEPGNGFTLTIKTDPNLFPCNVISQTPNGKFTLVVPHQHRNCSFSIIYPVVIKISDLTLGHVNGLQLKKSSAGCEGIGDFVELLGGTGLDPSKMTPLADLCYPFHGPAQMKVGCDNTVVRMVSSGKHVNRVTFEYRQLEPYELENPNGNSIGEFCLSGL
In words: Dose Response confirmation of uHTS hits for small molecule antagonists of the CRF-binding protein and CRF-R2 receptor complex. It is filed as functional. Particulars: read-out: IC50_Mean.

Assay [2] has as its target T1, Corticotropin-releasing factor receptor 2/Corticotropin-releasing factor-binding protein. Put plainly: activators of CRF receptor 2 with binding protein – uHTS hits, confirmation (AID 602473). The assay is classed as functional. Particulars: read-out: EC50_Mean.
For assay [3], the target named is T2, Heat shock factor protein 1 (Mus musculus, UniProt P38532).
T2 sequence (P38532 whole entry): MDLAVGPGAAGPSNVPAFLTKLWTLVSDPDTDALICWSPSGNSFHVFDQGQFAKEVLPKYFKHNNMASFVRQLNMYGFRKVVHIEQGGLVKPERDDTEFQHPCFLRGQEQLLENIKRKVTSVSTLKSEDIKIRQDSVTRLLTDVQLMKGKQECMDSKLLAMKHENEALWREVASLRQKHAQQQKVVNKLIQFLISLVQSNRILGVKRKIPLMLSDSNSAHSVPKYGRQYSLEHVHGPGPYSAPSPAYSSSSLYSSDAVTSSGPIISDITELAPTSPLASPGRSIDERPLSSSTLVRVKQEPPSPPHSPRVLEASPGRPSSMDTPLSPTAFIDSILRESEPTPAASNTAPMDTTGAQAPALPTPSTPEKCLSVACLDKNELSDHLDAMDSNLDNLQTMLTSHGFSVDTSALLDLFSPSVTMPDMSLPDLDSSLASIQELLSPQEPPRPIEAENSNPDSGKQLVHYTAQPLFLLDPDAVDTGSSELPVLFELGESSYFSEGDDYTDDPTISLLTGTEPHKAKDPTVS
Put plainly: inhibition of MG132-induced HSE-luciferase signal, confirmation, cell-based, NIH3T3, luminescence, dose retest (AID 2382).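 Also: NIH3T3 fibroblasts with HSF1-driven luciferase reporter stressed by proteasome inhibitor MG132; luminescence from HSF1-driven luciferase expression after 8 hours of MG132 stress.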 The assay is classed as functional.

Assay [4] addresses T3, Rac GTPase-activating protein 1 (Homo sapiens, UniProt Q9H0H5).
T3 sequence (Q9H0H5 whole entry): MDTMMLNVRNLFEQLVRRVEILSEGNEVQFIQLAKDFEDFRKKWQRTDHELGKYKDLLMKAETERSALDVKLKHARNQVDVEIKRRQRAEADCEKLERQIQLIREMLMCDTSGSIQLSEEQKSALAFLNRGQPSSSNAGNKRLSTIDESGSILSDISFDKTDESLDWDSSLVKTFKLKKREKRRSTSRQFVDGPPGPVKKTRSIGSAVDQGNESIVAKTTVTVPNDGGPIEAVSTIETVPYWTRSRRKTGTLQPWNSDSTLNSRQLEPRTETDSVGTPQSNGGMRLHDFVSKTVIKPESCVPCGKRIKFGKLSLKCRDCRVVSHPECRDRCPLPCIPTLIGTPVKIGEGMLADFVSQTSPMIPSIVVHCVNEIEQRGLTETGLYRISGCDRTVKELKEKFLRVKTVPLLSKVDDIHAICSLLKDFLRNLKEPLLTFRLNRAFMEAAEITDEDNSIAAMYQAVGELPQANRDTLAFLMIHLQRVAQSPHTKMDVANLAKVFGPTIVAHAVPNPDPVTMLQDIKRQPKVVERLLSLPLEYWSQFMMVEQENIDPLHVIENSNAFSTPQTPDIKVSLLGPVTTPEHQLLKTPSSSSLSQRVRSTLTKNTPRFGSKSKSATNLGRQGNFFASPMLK
In words: MgcRacGAP GTPase-activating activity inhibitors, confirmation, biochemical, ADP Hunter fluorescence, primary and confirmatory (AID 624330). The assay is classed as functional.

For assay [5], the target named is T4, Zinc finger protein mex-5 (Caenorhabditis elegans, UniProt Q9XUB2).
T4 sequence (Q9XUB2 whole entry): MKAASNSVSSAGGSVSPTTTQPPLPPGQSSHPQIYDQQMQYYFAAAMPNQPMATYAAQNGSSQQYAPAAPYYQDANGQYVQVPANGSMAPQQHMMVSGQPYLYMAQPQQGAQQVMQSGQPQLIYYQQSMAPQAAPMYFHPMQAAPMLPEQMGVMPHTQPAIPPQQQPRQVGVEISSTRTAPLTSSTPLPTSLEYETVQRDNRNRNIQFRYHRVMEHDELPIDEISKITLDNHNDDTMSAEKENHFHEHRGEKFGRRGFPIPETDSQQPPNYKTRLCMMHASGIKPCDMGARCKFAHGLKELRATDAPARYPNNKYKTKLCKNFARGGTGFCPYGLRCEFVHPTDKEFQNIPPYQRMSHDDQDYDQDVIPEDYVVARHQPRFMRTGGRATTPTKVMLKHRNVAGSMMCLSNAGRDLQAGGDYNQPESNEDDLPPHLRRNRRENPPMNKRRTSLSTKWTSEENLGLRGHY
In words: MEX-5/TCR-2 RNA interaction inhibitors, dose response, biochemical, C. elegans, fluorescence polarization (AID 1960).

Assay [6] has as its target T5, RNA-binding protein pos-1 (Caenorhabditis elegans, UniProt G5EF15).
T5 sequence (G5EF15 whole entry): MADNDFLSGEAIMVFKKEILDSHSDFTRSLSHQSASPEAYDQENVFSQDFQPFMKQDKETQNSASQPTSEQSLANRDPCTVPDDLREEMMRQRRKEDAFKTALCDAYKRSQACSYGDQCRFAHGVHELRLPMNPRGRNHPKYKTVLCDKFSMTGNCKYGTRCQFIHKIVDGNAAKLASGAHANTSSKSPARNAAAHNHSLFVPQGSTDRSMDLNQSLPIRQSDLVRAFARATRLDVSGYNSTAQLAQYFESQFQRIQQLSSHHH
Put plainly: inhibitors of POS-1/mex-3 RNA binding, dose response, biochemical, fluorescence polarization (AID 1964).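 Also: purified POS-1 fused to maltose binding protein made in E. coli; potency of compounds blocking POS-1 binding to fluorescent RNA.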

As to `Nc1nc(CN2CCc3ccccc3C2)nc(Nc2ccccc2)n1`, the IC50 in assay [1] was > 47.1 µM (inactive). Moreover, the EC50 in assay [2] was > 53 µM (inactive).

As to `COC(=O)C1=C(C)N(Cc2ccco2)C(=O)C1`, the EC50 in assay [3] was > 195 µM (not active). In the case of `Cc1ccccc1[N+](=O)[O-]`, the IC50 in assay [1] was > 47.1 µM (inactive). Also, the EC50 in assay [2] is > 53 µM (inactive). With `Cc1cc(C)c(NC(=O)CSc2nnc(-c3ccncc3)n2Cc2ccco2)c(Cl)c1`, in assay [3], the EC50 is on record as > 195 µM (not active).

Turning to `Oc1ccc(-c2csc(Nc3ncccn3)n2)cc1`, the IC50 in assay [4] was 21.4 µM (active).

For `CC(C)Cc1ccc(C#N)c(SCC(N)=O)n1`, in assay [3], the EC50 is given as > 195 µM (not active).

Take `COc1cc(/C=C/C(=O)OCC(=O)NCCC2=CCCCC2)ccc1O`: in assay [4], the IC50 was 49 µM (active). On to `COC(=O)c1cccc(N2C(=O)C3CC=CCC3C2=O)c1` (stereo unspecified), for which the EC50 in assay [3] is on record as > 100 µM (not active). Consider `CCOC(=O)c1cc(CC)sc1NC=C1C(=O)NC(=S)NC1=O`, for which the figures for the EC50 in assay [5] and in assay [6] were 15 µM (active) and > 300 µM (not active), respectively. Regarding `CC1(C)CC(=O)C=C(Nc2ccc(Br)cc2F)C1`, the EC50 in assay [3] was > 195 µM (not active).

Turning to `CC1=CC(C)(C)N2C(=O)C3(C(C#N)=C(N)OC4=C3C(=O)CCC4)c3c(C)c(C)cc1c32` (stereo unspecified), the EC50 in assay [5] and in assay [6] was > 300 µM (not active) each time. In the case of `Cc1ccc2c(c1)N(CC(=O)O)C(=O)CO2`, the EC50 in assay [3] was > 195 µM (not active). For `Oc1ccc(/C=N/NC2=NCCCCC2)c(O)c1`, the IC50 in assay [4] is 43.2 µM (active).

For the molecule `COc1ccccc1C(=O)OCC(=O)c1cccc([N+](=O)[O-])c1`, the EC50 in assay [3] was > 195 µM (not active). With `CCn1c(S)nc2c(=O)n(C)c(=O)n(C)c21`, the IC50 in assay [4] was 21.1 µM (active). Consider `Cc1nn(-c2ccccc2)c(C)c1NC(=O)COC(=O)c1ccccc1OC(F)F`, for which the IC50 in assay [1] is > 47.1 µM (inactive). Besides, the EC50 in assay [2] was > 53 µM (inactive). Consider `Cc1ccc(/C(O)=C/c2nc3cc(C)ccc3oc2=O)cc1`, for which the EC50 was 1.64 µM (inconclusive) in assay [5] and 7.64 µM (inconclusive) in assay [6]. Consider `COc1ccc(NC(=O)C(=O)NCC(=O)Nc2cccc(C(F)(F)F)c2)cc1`, for which the IC50 in assay [1] is > 47.1 µM (inactive). For the same molecule, the EC50 in assay [2] was > 53 µM (inactive).

As for `O=C(O)c1cc(S(=O)(=O)N(Cc2ccccc2)c2ccccc2Cl)ccc1Cl`, the EC50 in assay [3] is reported as > 195 µM (not active). Regarding `COc1ccc(C2c3ccc(O)cc3Oc3ncn(Cc4ccco4)c(=N)c32)cc1OC` (stereo unspecified), the EC50 in assay [5] and in assay [6] was > 300 µM (not active) in each case. Consider `CCCC(C)NC(=O)c1ccc(C2SCC(=O)N2Cc2ccco2)cc1` (stereo unspecified), for which the EC50 in assay [5] and in assay [6] was > 300 µM (not active) in each case.

Take `COc1ccccc1-c1cc(C(=O)NN)[nH]n1`: the IC50 in assay [1] is > 47.1 µM (inactive). Further, the EC50 in assay [2] is > 53 µM (inactive). The corresponding values for `COc1ccc(CNC(=O)CN2CCN(c3ccc(F)cc3)CC2)cc1` are > 47.1 µM (inactive) and > 53 µM (inactive). Consider `OCCC1CN(Cc2cccc(-n3cccn3)c2)CCN1Cc1ccccc1` (stereo unspecified), for which the EC50 in assay [3] is > 195 µM (not active). As to `Clc1cc(-c2ccc(/C=N/n3cnnc3)o2)ccc1Br`, the figures for the EC50 in assay [5] and in assay [6] were 81.6 µM (active) and 59.4 µM (active), respectively.

On to `CCN(C(=O)COC(=O)Cc1cccc2ccccc12)C1CCS(=O)(=O)C1` (stereo unspecified), for which the IC50 in assay [1] was > 47.1 µM (inactive). For the same molecule, the EC50 in assay [2] was > 53 µM (inactive). In the case of `O=C(c1cccc([N+](=O)[O-])c1)c1ccc2c(c1)OCCOCCOCCO2`, in assay [1], the IC50 is > 47.1 µM (inactive). Besides, the EC50 in assay [2] was > 53 µM (inactive). On to `CCOC(=O)c1[nH]c2ccc(OC)cc2c1NC(=O)c1ccccc1C(=O)O`, for which, in assay [4], the IC50 is 109 µM (active). With `N=C(Cc1ccc([N+](=O)[O-])cc1)NOC(=O)c1ccc(Br)cc1`, the IC50 in assay [1] is 9.38 µM (active). Also, the EC50 in assay [2] is > 53 µM (inactive). As to `O=C(CN1CCN(c2ccccn2)CC1)Nc1ccc(F)cc1`, in assay [4], the IC50 was 78.9 µM (active).

In the case of `C#CCOc1ccccc1CNC1CCN(Cc2ccccc2)CC1`, the IC50 in assay [4] was 64.9 µM (active). On to `CCOc1ccccc1Nc1ccnc2cc(Cl)ccc12`, for which the IC50 in assay [1] is > 47.1 µM (inactive). Besides, the EC50 in assay [2] is > 53 µM (inactive).

As to `CC1CC(C)CN(CC(=O)NC(c2ccccc2)c2ccccc2)C1` (stereo unspecified), the IC50 in assay [4] is 231 µM (active).

With `COc1cc(C(=O)NCc2ccccc2Cl)ccc1OCC(=O)N1CCOCC1`, in assay [1], the IC50 was > 47.1 µM (inactive). Also, in assay [2], the EC50 is > 53 µM (inactive). As for `COc1cccc(C(=O)NNc2nc(C)cc(C)n2)c1`, the EC50 in assay [5] was 127 µM (active); in assay [6] it was > 300 µM (not active). Turning to `CCOc1ccc(N2C(=O)NC(=O)/C(=C\Nc3ccc(N4CCOCC4)cc3)C2=O)cc1`, the EC50 in assay [5] was 60.4 µM (inconclusive); in assay [6] it was 17.6 µM (inconclusive). Regarding `CC(C)c1ccc(CNc2ccc(N3CCOCC3)cc2)cc1`, in assay [4], the IC50 is 12.4 µM (active).

Consider `COc1ccc(N2CCN(c3ccc(C(N)=O)cc3[N+](=O)[O-])CC2)cc1`, for which the IC50 in assay [4] is 158 µM (active). On to `COc1cccc(F)c1C(=O)NC(=O)Nc1ccc2nc(C)oc2c1`, for which the EC50 in assay [5] is 17.4 µM (active); in assay [6] it was 17.8 µM (active). The like results for `CCC(C)n1c(=N)c(C#N)cc2c(=O)n3cccc(C)c3nc21` (stereo unspecified) were, in that order, 21.5 µM (inconclusive) and 296 µM (active).
